Assay results reported in patent publication US8642592B2, “Oxo-heterocyclically substituted alkyl carboxylic acids and use thereof” (Bayer Intellectual Property GmbH, priority 2009, dated 2014).
pEC50, pIC50: −log10 of the molar value.

Columns and labels:
saphenous artery = experiment: Vasorelaxant effect in vitro (phenylephrine-contracted artery rings); parameters: species or system Rabbits; conditions: Oryctolagus cuniculus; concentration reducing phenylephrine-induced contraction of rabbit saphenous artery rings by 50%
Method: Rabbits are anesthetized and sacrificed by intravenous injection of thiopental sodium (about 50 mg/kg) and exsanguinated. The saphenous artery is removed and divided into rings 3 mm wide. The rings are mounted singly on in each case a pair of triangular hooks open at the end and made of 0.3 mm-thick special wire (Remanium®). Each ring is placed under an initial tension in 5 ml organ baths with Krebs-Henseleit solution which is at 37° C., is gassed with carbogen and has the following composition: NaCl 119 mM; KCl 4.8 mM; CaCl2×2 H2O 1 mM; MgSO4×7 H2O 1.4 mM; KH2PO4 1.2 mM; NaHCO3 25 mM; glucose 10 mM; bovine serum albumin 0.001%. The force of contraction is detected with Statham UC2 cells, amplified and digitized via A/D converters (DAS-1802 HC, Keithley Instruments, Munich) and recorded in parallel on chart recorders. Contractions are induced by addition of phenylephrine.
After several (generally 4) control cycles, the substance to be investigated is added in each further run in increasing dosage, and the level of the contraction achieved under the influence of the test substance is compared with the level of the contraction reached in the last preceding run. The concentration necessary to reduce the contraction reached in the preceding control by 50% is calculated from this (IC50). The standard application volume is 5 μl. The proportion of DMSO in the bath solution corresponds to 0.1%.

sGC = target: T1, sGC (Rattus norvegicus, UniProt P20595); experiment: sGC-activating activity in the CHO reporter cell in vitro; type: cell-based
T1 construct: expressed in transfected cells; host or cells: CHO reporter cell line
T1 sequence (P20595 1-619): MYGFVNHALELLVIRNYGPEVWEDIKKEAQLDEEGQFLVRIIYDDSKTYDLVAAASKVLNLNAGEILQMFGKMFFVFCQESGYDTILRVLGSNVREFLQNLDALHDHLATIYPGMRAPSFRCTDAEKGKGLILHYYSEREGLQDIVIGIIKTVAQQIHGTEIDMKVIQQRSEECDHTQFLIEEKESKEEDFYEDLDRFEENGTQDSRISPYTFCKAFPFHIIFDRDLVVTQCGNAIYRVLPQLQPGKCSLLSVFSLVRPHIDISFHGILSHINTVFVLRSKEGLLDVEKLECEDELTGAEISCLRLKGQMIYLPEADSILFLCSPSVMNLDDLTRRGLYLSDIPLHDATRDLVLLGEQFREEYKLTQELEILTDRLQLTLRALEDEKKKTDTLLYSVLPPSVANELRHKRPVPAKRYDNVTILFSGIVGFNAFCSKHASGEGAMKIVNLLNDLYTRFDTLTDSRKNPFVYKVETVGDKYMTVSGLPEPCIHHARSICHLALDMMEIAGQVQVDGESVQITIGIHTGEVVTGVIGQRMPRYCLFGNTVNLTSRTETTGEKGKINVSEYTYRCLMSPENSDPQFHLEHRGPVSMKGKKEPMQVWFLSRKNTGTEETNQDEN
T1 sequence (P19686 1-690 partner): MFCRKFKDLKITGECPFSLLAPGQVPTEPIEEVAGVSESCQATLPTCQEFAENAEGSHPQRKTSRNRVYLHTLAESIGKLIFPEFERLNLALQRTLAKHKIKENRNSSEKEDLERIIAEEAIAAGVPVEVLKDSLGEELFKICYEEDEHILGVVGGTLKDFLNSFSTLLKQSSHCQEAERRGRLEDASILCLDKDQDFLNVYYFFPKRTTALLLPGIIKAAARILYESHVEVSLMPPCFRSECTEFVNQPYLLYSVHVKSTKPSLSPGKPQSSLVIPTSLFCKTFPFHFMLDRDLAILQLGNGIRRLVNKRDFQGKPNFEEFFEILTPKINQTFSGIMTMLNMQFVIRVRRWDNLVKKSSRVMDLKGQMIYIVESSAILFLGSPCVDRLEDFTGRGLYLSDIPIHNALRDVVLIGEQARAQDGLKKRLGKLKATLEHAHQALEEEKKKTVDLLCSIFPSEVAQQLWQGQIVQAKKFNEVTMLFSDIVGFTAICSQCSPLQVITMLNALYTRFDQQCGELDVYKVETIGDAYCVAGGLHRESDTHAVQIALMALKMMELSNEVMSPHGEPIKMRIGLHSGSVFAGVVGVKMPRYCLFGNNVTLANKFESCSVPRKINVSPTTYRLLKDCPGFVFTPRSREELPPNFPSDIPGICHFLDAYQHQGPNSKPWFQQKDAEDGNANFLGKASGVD
Method: The cellular action of the compounds according to the invention is determined at a recombinant guanylate cyclase reporter cell line, as described in F. Wunder et al., Anal. Biochem. 339, 104-112 (2005).

[1] = target: T2, soluble guanylate cyclase (sGC) (Rattus norvegicus, UniProt P20595); experiment: Stimulation of sGC enzyme activity (PPi/luciferase detection); type: biochemical; conditions: sGC enzyme in vitro; for pEC50: read-out: EC50 (concentration at 50% of maximum efficacy), activating action at the sGC enzyme
T2 construct: made in house; host or cells: baculovirus/Sf9 insect cells
T2 sequence (P20595 1-619): T1 sequence (P20595 1-619)
T2 sequence (P19686 1-690 partner): T1 sequence (P19686 1-690 partner)
Method: Soluble guanylate cyclase (sGC) converts on stimulation GTP into cGMP and pyrophosphate (PPi). PPi is detected with the aid of the assay described below. The signal produced in the assay increases as the reaction progresses and serves as a measure of the sGC enzyme activity under the given stimulation.
To carry out the assay, 29 μl of enzyme solution [0-10 nM soluble guanylate cyclase (prepared according to Honicka et al., J. Mol. Med. 77, 14-23 (1999)) in 50 mM TEA, 2 mM MgCl2, 0.1% BSA (fraction V), 0.005% Brij®, pH 7.5] are initially introduced into a microplate, and 1 μl of the substance to be tested (as a serially diluted solution in DMSO) is added. The mixture is incubated at room temperature for 10 min. Then 20 μl of detection mix [1.2 nM Firefly Luciferase (Photinus pyralis luciferase, Promega), 29 μM dehydroluciferin (prepared according to Bitler & McElroy, Arch. Biochem. Biophys. 72, 358 (1957)), 122 μM luciferin (Promega), 153 μM ATP (Sigma) and 0.4 mM DTT (Sigma) in 50 mM TEA, 2 mM MgCl2, 0.1% BSA (fraction V), 0.005% Brij®, pH 7.5] are added. The enzyme reaction is started by adding 20 μl of substrate solution [1.25 mM guanosine 5′-triphosphate (Sigma) in 50 mM TEA, 2 mM MgCl2, 0.1% BSA (fraction V), 0.005% Brij®, pH 7.5] and measured continuously in a luminometer. The extent of the stimulation by the substance to be tested can be determined relative to the signal of the unstimulated reaction.
The activation of heme-free guanylate cyclase is examined by addition of 25 μM of 1H-1,2,4-oxadiazolo[4,3-a]quinoxalin-1-one (ODQ) to the enzyme solution and subsequent incubation for 30 minutes and compared to the stimulation of the native enzyme.

Heme-containing sGC = target: T3, Heme-containing sGC (Rattus norvegicus, UniProt P20595); experiment: Stimulation of recombinant soluble guanylate cyclase in vitro, heme-containing enzyme; type: biochemical; conditions: 0 μM Example 1
T3 construct: made in house; host or cells: baculovirus/Sf9 insect cells
T3 sequence (P20595 1-619): T1 sequence (P20595 1-619)
T3 sequence (P19686 1-690 partner): T1 sequence (P19686 1-690 partner)
Excerpt: Hoenicka, E. M. Becker, H. Apeler, T. Sirichoke, H. Schroeder, R. Gerzer and J.-P. Stasch, “Purified soluble guanylyl cyclase expressed in a baculovirus/Sf9 system: Stimulation by YC-1, nitric oxide, and carbon oxide”, J. Mol. Med. 77 (1999), 14-23. The heme-free guanylate cyclase is obtained by adding Tween 20 to the sample buffer (0.5% in the final concentration).
The activation of sGC by a test substance is reported as n-fold stimulation of the basal activity.

Row | Compound | MEC (minimum effective concentration), sGC-activating activity in the CHO reporter cell (sGC) | MEC (minimum effective concentration), activating action at the sGC enzyme [1] | pEC50 [1] | also measured
1 | CCC(C)C(C(=O)NCCCCC1(C(=O)O)CC1)c1ccc(CN2N=C(c3ccccc3)OCC2=O)cc1 (single isomer, unassigned; (+)) [Example 5, (+)-1-(4-{[3-methyl-2-{4-[(5-oxo-2-phenyl-5,6-dihydro-4H-1,3,4-oxadiazin-4-yl)methyl]phenyl}-pentanoyl]amino}butyl)cyclopropanecarboxylic acid] | 6.5 nM | 58 nM | 5.82 | pIC50 (saphenous artery): 6.53
2 | CC(CCCCNC(=O)C(c1ccc(CN2N=C(c3ccccc3)OCC2=O)cc1)C1CCCC1)C(=O)O (single isomer, unassigned; (+)) [Example 10, (+)-6-{[2-cyclopentyl-2-{4-[(5-oxo-2-phenyl-5,6-dihydro-4H-1,3,4-oxadiazin-4-yl)methyl]phenyl}-acetyl]amino}-2-methylhexanoic acid] | 100 nM | – | – | –
3 | CC(CCCCNC(=O)C(c1ccc(CN2N=C(c3ccccc3)OCC2=O)cc1)C1CCCC1)C(=O)O (single isomer, unassigned; (+)) [Example 11, (+)-6-{[2-cyclopentyl-2-{4-[(5-oxo-2-phenyl-5,6-dihydro-4H-1,3,4-oxadiazin-4-yl)methyl]phenyl}-acetyl]amino}-2-methylhexanoic acid] | 100 nM | – | – | –
4 | O=C(NC/C=C/CC1(C(=O)O)CC1)C(c1ccc(CN2N=C(c3ccccc3)OCC2=O)cc1)C1CCCC1 (single isomer, unassigned; (-)) [Example 15] | 20 nM | – | – | –
5 | CCN(CC)[N+]([O-])=NO [DEA/NO, 2-(N,N-diethylamino)diazenolate 2-oxide, reference compound] | – | – | – | Stimulation (n-fold) of heme-containing sGC by DEA/NO alone (Heme-containing sGC; 0.1 μM DEA/NO): 22.2 n-fold
6 | O=C(O)CC1(CCCNC(=O)C(c2ccc(CN3N=C(c4ccccc4)OCC3=O)cc2)C2CCCC2)CC1 (stereo not drawn) [Example 18, (1-{3-[(Cyclopentyl{4-[(5-oxo-2-phenyl-5,6-dihydro-4H-1,3,4-oxadiazin-4-yl)methyl]phenyl}-acetyl)amino]propyl}cyclopropyl)acetic Acid] | 30 nM | – | – | –
7 | O=C(O)CCCCCNC(=O)C(c1ccc(CN2N=C(c3ccccc3)OCC2=O)cc1)C1CCCC1 (stereo not drawn) [Example 19, 6-[(Cyclopentyl{4-[(5-oxo-2-phenyl-5,6-dihydro-4H-1,3,4-oxadiazin-4-yl)methyl]phenyl}acetyl)-amino]hexanoic Acid] | 100 nM | – | – | –
8 | O=C(NCCCCC1(C(=O)O)CC1)C(c1ccc(Cn2nc(-c3ccccc3)ccc2=O)cc1)C1CCCC1 (stereo not drawn) [Example 20] | 3 nM | 13 nM | 6.19 | pIC50 (saphenous artery): 7.15
9 | CC(C(C(=O)NCCCCC1(C(=O)O)CC1)c1ccc(CN2N=C(c3ccccc3)OCC2=O)cc1)C(F)(F)F (stereo not drawn) [Example 24, 1-{4-[(4,4,4-trifluoro-3-methyl-2-{4-[(5-oxo-2-phenyl-5,6-dihydro-4H-1,3,4-oxadiazin-4-yl)methyl]-phenyl}-butanoyl)amino]butyl}cyclopropanecarboxylic acid] | 1 nM | 5.5 nM | 6.74 | –
10 | O=c1onc2cnc3ccccc3n12 [ODQ, 1H-1,2,4-oxadiazolo-(4,3a)-quinoxalin-1-one, reference compound] | – | – | – | Stimulation (n-fold) of heme-containing sGC by ODQ alone (Heme-containing sGC; 10 μM ODQ): 3.0 n-fold
